{
  "source": "patent US20090281133A1",
  "about": "“Heterocyclic antiviral compounds” (Roche Palo Alto LLC, priority 2008, published 2009)",
  "molecules": {"B1": {"name": "RANTES: CC chemokine, naturally occurring chemokine that can stimulate the CCR5 receptor (protein, UniProt P13501 24-91, looked up)", "C-C motif chemokine 5": "SPYSSDTTPCCFAYIARPLPRAHIKEYFYTSGKCSNPAVVFVTRKNRQVCANPEKKWVREYINSLEMS"}},
  "data": [
    {"tested_on": "HIV", "assay": "not given", "details": "cited from earlier work", "values": [
      {"molecule": "B1", "block of HIV entry into the cells": "block HIV entry into the cells"}
    ]},
    {"tested_on": "collagen induced arthritis", "assay": "not given", "details": "collagen-induced arthritis model; cited from earlier work", "values": [
      {"molecule": "Cc1ccc(-c2ccc3c(c2)C=C(C(=O)Nc2ccc(C[N+](C)(C)C4CCOCC4)cc2)CCC3)cc1.[Cl-]", "note": "[TAK-779]", "incidence and severity of arthritis": "reduce both the incidence and severity of arthritis", "infiltration of inflammatory CCR5+ T-cells into the joint": "inhibited"}
    ]},
    {"tested_on": "CCR5-mediated fusion of Hela-R5 cells with CEM-NKr-CCR5-Luc cells", "assay": "CCR5-mediated cell-cell fusion (CCF) assay", "assay_type": "cell-based", "details": "luciferase readout, 24 hrs co-culture", "protocol": "CCF assay was performed as described before (C. Ji, J. Zhang, N. Cammack and S. Sankuratri, J. Biomol. Screen. 2006 11(6):652-663). Hela-R5 cells (express gp160 from R5-tropic virus and HIV-1 Tat) were plated in 384 well white culture plates (BD Bioscience, Palo Alto, Calif.) at 7.5×10^3 cells per well in phenol red-free Dulbecco's Modified Eagle Medium (DMEM) supplemented with 10% FBS, 1× Pen-Strep, 300 μg/mL G418, 100 μg/mL hygromycin, and 1 μg/mL Doxycycline (Dox) (BD Bioscience, Palo Alto, Calif.), using Multimek (Beckman, Fullerton, Calif.) and incubated at 37° C. overnight to induce the expression of gp160. Ten μL diluted compounds in medium containing 5% DMSO were added to the cells, followed by the addition of CEM-NKr-CCR5-Luc (obtained from NIH AIDS Research & Reference Reagents Program) that expresses CD4 and CCR5 and carries a HIV-2 long terminal repeat (LTR)-driven luciferase reporter gene at 1.5×10^4 cells/15 μL/well and incubated for 24 hrs. At the end of co-culture, 15 μL of Steady-Glo luciferase substrate was added into each well, and the cultures were sealed and gently shaken for 45 min. The luciferase activity were measured for 10 sec per well as luminescence by using 16-channel TopCount NXT (PerkinElmer, Shelton, Conn.) with 10 min dark adaptation and the readout is count per second (CPS). […]", "units": {"IC50": "nM"}, "values": [
      {"molecule": "CCCCC1CN(C[C@H]2CC[C@H](OCC)CC2)C(=O)CC12CCN(C1(C)CCN(C(=O)c3c(C)ncnc3C)CC1)CC2", "note": "(mixture of isomers) [I-1, 5-Butyl-9-[1-(4,6-dimethyl-pyrimidine-5-carbonyl)-4-methyl-piperidin-4-yl]-3-(4-ethoxy-cyclohexylmethyl)-3,9-diaza-spiro[5.5]undecan-2-one]", "IC50": "< 2.5"}
    ]},
    {"tested_on": "not given", "assay": "not given", "details": "not given", "units": {"melting point": "°C"}, "values": [
      {"molecule": "CCCCC1CN(CC2CCOCC2)C(=O)CC12CCN(C1(C)CCN(C(=O)c3c(C)ncnc3C)CC1)CC2", "note": "(centres unmarked) [I-4]", "melting point": "92.8 to 100.1"}
    ]},
    {"target": "T1, Human CCR5 receptor (Homo sapiens, UniProt P51681)", "T1 construct": "expressed in transfected cells", "T1 sequence (P51681 whole entry)": "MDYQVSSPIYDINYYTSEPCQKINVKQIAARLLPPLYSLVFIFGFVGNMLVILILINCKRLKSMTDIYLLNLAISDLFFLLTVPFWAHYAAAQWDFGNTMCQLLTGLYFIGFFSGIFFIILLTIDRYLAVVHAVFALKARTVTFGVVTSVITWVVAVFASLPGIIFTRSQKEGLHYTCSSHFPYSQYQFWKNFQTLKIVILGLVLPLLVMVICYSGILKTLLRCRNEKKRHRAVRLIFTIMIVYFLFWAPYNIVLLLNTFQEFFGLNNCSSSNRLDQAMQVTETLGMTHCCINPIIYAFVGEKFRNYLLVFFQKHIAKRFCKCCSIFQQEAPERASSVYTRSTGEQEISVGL", "assay": "Human CCR5 receptor-ligand binding assay", "details": "CHO-Gα16-hCCR5 cells, 125I RANTES binding", "description": "Human CCR5 Receptor-Ligand Binding Assay Protocol\nHuman CCR5 receptor (Genebank ID: 29169292) was cloned into mammalian expression vector, pTarget (Promega). The construct was transfected into CHO-Gα16 cells by using Fugene Reagent (Roche). Clones were selected under antibiotic pressure (G418 and Hygromycin) and sorted 4 times with a fluorescence activates cell sorter and a monoclonal antibody specific for CCR5 receptor (BD Biosciences Pharmigen, Mab 2D7, Cat. No. 555993). The clone with highest expression (100,000 copies per cell) was chosen for the binding assays.\nAdherent cells in […] tissue culture flask (˜90% confluent) were harvested using 1 mM EDTA in PBS (phosphate-buffered saline) without Ca^2+ and Mg^2+. Cells were washed twice with PBS containing no Ca^2+ and Mg^2+. CHO-Gα16-hCCR5 cells were then resuspended (1×10^6/mL) in ice cold binding buffer (50 mM HEPES, 1 mM CaCl2, 5 mM MgCl2, 0.5% BSA, 0.05% NaN3, pH 7.24), pH 7.4), supplemented with freshly made 0.5% BSA and 0.05% NaN3.\nEighty μl CHO-Gα16-hCCR5 (1×10^6/mL) cells were added to 96 well plates. All dilutions were made in binding buffer (50 mM HEPES, 1 mM CaCl2, 5 mM MgCl2, 0.5% BSA, 0.05% NaN3, pH 7.24).\nThe plates were incubated on a cell shaker at RT for 2 h with a final concentration of 0.1 nM ^125I RANTES or ^125I MIP-1α or ^125I MIP-1β. The compound dilutions were made in PBS, 1% BSA. Total reaction volume was 100 μl per well. The test compounds were added to the cells prior to the addition of radioligand.\nAfter incubation, the cells were harvested onto GF/C filter plates using Packard cell harvester. Filters were pretreated with 0.3% PEI/0.2% BSA for 30 min. The filter plate was washed rapidly 5 times with 25 mM HEPES, 500 mM NaCl, 1 mM CaCl2 and 5 mM MgCl2 adjusted to pH 7.1. Plates were dried in oven (70° C.) for 20 min, added with 40 μl scintillation fluid and sealed with Packard TopSeal-A. Packard Top Count was used to measure of the radioactivity for 1 min per well.\nTotal binding was determined with control wells added with radioisotope and buffer and the non-specific binding was determined using an excess cold RANTES to some of the control wells. Specific binding was determined by subtracting the non-specific form total binding. Results are expressed as the percentage of specific ^125I RANTES binding. IC50 values were determined using varying concentrations of the test ligand in triplicates and the data was analyzed using GraphPad Prism (GraphPad, San Diego, Calif.).", "units": {"IC50": "nM"}, "values": [
      {"molecule": "CCCCC1CN(CC2CCC(OCC)CC2)C(=O)CC12CCN(C1(C)CCN(C(=O)c3c(C)ncnc3C)CC1)CC2", "note": "(single isomer, unassigned) [I-2]", "IC50": 26.8},
      {"molecule": "CCCCC1CN(CC2CCN(C(C)=O)CC2)C(=O)CC12CCN(C1(C)CCN(C(=O)c3c(C)ncnc3C)CC1)CC2", "note": "(centres unmarked) [I-7]", "IC50": 51.7},
      {"molecule": "CCCCC1CN(CC2CCOCC2)C(=O)CC12CCN(C1(C)CCN(C(=O)c3c(C)cc(C#N)nc3C)CC1)CC2", "note": "(centres unmarked) [I-13]", "IC50": 19.7},
      {"molecule": "CCCCC1CN(CC2CCN(C(=O)OC)CC2)C(=O)CC12CCN(C1(C)CCN(C(=O)c3c(C)ncnc3C)CC1)CC2", "note": "(centres unmarked) [I-8, 4-{1-Butyl-9-[1-(4,6-dimethyl-pyrimidine-5-carbonyl)-4-methyl-piperidin-4-yl]-4-oxo-3,9-diaza-spiro[5.5]undec-3-ylmethyl}-piperidine-1-carboxylic acid methyl ester]", "IC50": 24.4},
      {"molecule": "CCCCC1CN(CC2CCOCC2)C(=O)CC12CCN(C1(C)CCN(C(=O)c3c(C)ncnc3C)CC1)CC2", "note": "(centres unmarked) [I-4]", "IC50": 17.2},
      {"molecule": "CCCCC1CN(CC2CCOCC2)C(=O)CC12CCN(C1(C)CCN(C(=O)c3c(C)ccnc3C)CC1)CC2", "note": "(centres unmarked) [I-12]", "IC50": 13.7},
      {"molecule": "CCCCC1CN(CC2CCCCO2)C(=O)CC12CCN(C1(C)CCN(C(=O)c3c(C)ncnc3C)CC1)CC2", "note": "(centres unmarked) [I-11]", "IC50": 24.6},
      {"molecule": "CCCCC1CN(C[C@H]2CC[C@H](OCC)CC2)C(=O)CC12CCN(C1(C)CCN(C(=O)c3c(C)ncnc3C)CC1)CC2", "note": "(mixture of isomers) [I-1, 5-Butyl-9-[1-(4,6-dimethyl-pyrimidine-5-carbonyl)-4-methyl-piperidin-4-yl]-3-(4-ethoxy-cyclohexylmethyl)-3,9-diaza-spiro[5.5]undecan-2-one]", "IC50": 30.4},
      {"molecule": "CCCCC1CN(CC2CCC(OCC)CC2)C(=O)CC12CCN(C1(C)CCN(C(=O)c3c(C)ncnc3C)CC1)CC2", "note": "(single isomer, unassigned) [I-3]", "IC50": 32.9},
      {"molecule": "CCCCC1CN(CC2CCC(O)CC2)C(=O)CC12CCN(C1(C)CCN(C(=O)c3c(C)ccnc3C)CC1)CC2", "note": "(centres unmarked) [I-15, 5-Butyl-9-[1-(2,4-dimethyl-pyridine-3-carbonyl)-4-methyl-piperidin-4-yl]-3-(4-hydroxy-cyclohexylmethyl)-3,9-diaza-spiro[5.5]undecan-2-one]", "IC50": 30.5},
      {"molecule": "CCCCC1CN(C[C@H]2CCOC2)C(=O)CC12CCN(C1(C)CCN(C(=O)c3c(C)ccnc3C)CC1)CC2", "note": "(stereo partly drawn) [I-14, 5-Butyl-9-[1-(2,4-dimethyl-pyridine-3-carbonyl)-4-methyl-piperidin-4-yl]-3-[(R)-1-(tetrahydro-furan-3-yl)methyl]-3,9-diaza-spiro[5.5]undecan-2-one]", "IC50": 17.7},
      {"molecule": "CCCCC1CN(C[C@H]2CC[C@H](OC)CC2)C(=O)CC12CCN(C1(C)CCN(C(=O)c3c(C)ncnc3C)CC1)CC2", "note": "(some centres unmarked) [I-5]", "IC50": 20.8},
      {"molecule": "CCCCC1CN(C[C@@H]2CCOC2)C(=O)CC12CCN(C1(C)CCN(C(=O)c3c(C)ccnc3C)CC1)CC2", "note": "(some centres unmarked) [I-10]", "IC50": 24.9},
      {"molecule": "CCCCC1CN(C[C@H]2CC[C@@H](OCC)CC2)C(=O)CC12CCN(C1(C)CCN(C(=O)c3c(C)ncnc3C)CC1)CC2", "note": "(some centres unmarked) [I-9]", "IC50": 32},
      {"molecule": "CCCCC1CN(CC2CCN(S(C)(=O)=O)CC2)C(=O)CC12CCN(C1(C)CCN(C(=O)c3c(C)ncnc3C)CC1)CC2", "note": "(centres unmarked) [I-6]", "IC50": 16.9}
    ]}
  ]
}
